Consider three compounds from patent US4783402A, “Production of primary or secondary alcohol derivatives of phospholipids by the enzymatic technique” (Meito Sangyo Kabushiki Kaisha, priority 1983, dated 1988).

Experiment [1] has as its system phospholipase DM derived from the Actinomadura strain (Actinomadura sp. No. 362, FERM-P No. 6132; BP 511). Nature of the experiment: Influences of various substances on enzyme activity (choline oxidase method, egg-yolk lecithin substrate). In kind it is biochemical. As to conditions: substance at 1 mM in the enzyme reaction system, added instead of the aqueous calcium chloride solution; lecithin emulsion, Tris-HCl pH 7.2, 37° C., 20 minutes. The method, then:
(§1) The enzyme activity of the phospholipase DM utilized in the process of this invention is determined by measuring the amount of a base which is formed when the phospholipase DM acts on the substrate glycerophospholipid to decompose the ester linkage between phosphoric acid and the nitrogen-containing base. Unless otherwise indicated, the activity of phospholipase DM is measured by the choline oxidase method to be described hereinafter.
(§2) Distilled water (0.15 ml), 0.1 ml of 0.2M Tris-HCl buffer (pH 7.2) and 0.05 ml of 0.1M aqueous calcium chloride solution are mixed with 0.1 ml of 1% emulsion of purified lecithin from egg yolk (an emulsion of 0.1 g of lecithin, 1 ml of ethyl ether and 10 ml of distilled water obtained by ultrasonication). To the mixture is added 0.1 ml of an enzyme solution and reacted at 37° C. for 20 minutes. Then, 0.2 ml of 1M Tris-HCl buffer (pH 8.0) containing 50 mM disodium ethylenediamine tetraacetate, and immediately then, the mixture is boiled for 5 minutes, followed by completely stopping the reaction. Then, 4 ml of a solution obtained by dissolving a choline color-forming agent contained in a kit of a reagent for choline esterase measurement (produced by Nippon Shoji Co., Ltd.) in a color dissolving liquid is added, and reacted at 37° C. for 20 minutes. Then, the absorbance of the reaction solution at 500 nm is measured.
(§3) As a control, the absorbance of the product obtained by the same procedure as above except that an enzyme solution previously deactivated by heat is used.
(§4) The activity of the enzyme to liberate 1 micromole of choline per minute is defined as one unit.
(§5) In the method of measuring the activity of the enzyme described hereinabove, 0.05 ml of an aqueous solution of each of various substances is added instead of the aqueous calcium chloride solution so that its concentration in the enzyme reaction system becomes 1 mM. The activity of the enzyme is then measured. The activity of the enzyme at the time of adding water is taken as 100, and the relative activity of the enzyme is determined.

Experiment [2] deals with phospholipase DM derived from the Nocardiopsis strain (Nocardiopsis sp. No. 779, FERM-P No. 6133; BP 512). The experiment is described as above. In kind it is biochemical. As to conditions: substance at 1 mM in the enzyme reaction system, added instead of the aqueous calcium chloride solution; lecithin emulsion, Tris-HCl pH 7.2, 37° C., 20 minutes. How it is done:
as §1, §2, §3, §4, §5

As for `CCO` [ethanol], the “influence on the activity of the enzyme (relative activity, activity at the time of adding water taken as 100)” value in experiment [1] and in experiment [2] was “activating action” each time.

`CC(C)O` [isopropanol]: the “influence on the activity of the enzyme (relative activity, activity at the time of adding water taken as 100)” value in experiment [1] and in experiment [2] was “activating action” in each case.

Consider `CC(C)(C)O` [t-butanol], for which the “influence on the activity of the enzyme (relative activity, activity at the time of adding water taken as 100)” value in experiment [1] and in experiment [2] was “activating action” each time.
